# Source: patent US10597388B2, “Pyridazinone herbicides” (FMC CORPORATION, priority 2014, dated 2020)
# Columns and labels:
# Assay in all cases: Test D controlled growth environment herbicide test, pre- and postemergence
# Format in all cases: in vivo
# [1] = tested on: bromegrass, downy (downy bromegrass, Bromus tectorum)
# Outline: (§1)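 Species sown in silt loam and sprayed preemergence, or grown in peat-based medium to 2–18 cm (1- to 4-leaf stage) and sprayed postemergence, with compounds in non-phytotoxic solvent plus surfactant. Visual injury scored versus controls after 14–21 d in a controlled environment, 0 (no effect) to 100 (complete control).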
# [2] = tested on: buckwheat, wild (wild buckwheat, Polygonum convolvulus)
# Outline: as §1
# [3] = tested on: canarygrass (Phalaris minor)
# Outline: as §1
# [4] = tested on: chamomile (scentless chamomile, Matricaria inodora)
# Outline: as §1
# [5] = tested on: chickweed (common chickweed, Stellaria media)
# Outline: as §1
# [6] = tested on: deadnettle (henbit deadnettle, Lamium amplexicaule)
# Outline: as §1
# [7] = tested on: field violet (Viola arvensis)
# Outline: as §1
# [8] = tested on: foxtail, green (green foxtail, Setaria viridis)
# Outline: as §1
# [9] = tested on: galium (catchweed bedstraw, Galium aparine)
# Outline: as §1
# [10] = tested on: lambsquarters (Chenopodium album)
# Outline: as §1
# [11] = tested on: oilseed rape (Brassica napus)
# Outline: as §1
# [12] = tested on: ryegrass, Italian (Italian ryegrass, Lolium multiflorum)
# Outline: as §1
# [13] = tested on: wheat, winter (winter wheat, Triticum aestivum)
# Outline: as §1
# [14] = tested on: windgrass (Apera spica-venti)
# Outline: as §1
# [15] = Postemergence, 31 g ai/ha, scale 0 to 100 (0 no effect, 100 complete control)
# [16] = Postemergence, 125 g ai/ha, visual rating on scale 0 (no effect) to 100 (complete control), 14 to 21 d
# [17] = Postemergence, 250 g ai/ha, scale 0 to 100 (0 no effect, 100 complete control)
# [18] = Preemergence, 62 g ai/ha, scale 0 to 100 (0 no effect, 100 complete control)
# [19] = Preemergence, 125 g ai/ha, scale 0 to 100 (0 no effect, 100 complete control)
# [20] = Preemergence, 250 g ai/ha, scale 0 to 100, 0 no effect, 100 complete control
# [21] = postemergence, 62 g ai/ha, scale 0 to 100, 0 no effect, 100 complete control
smiles,measurement,setting,value
Cn1nc(Br)c(O)c(-c2cccc3ccccc23)c1=O [Compound 20],"Bromegrass, Downy plant response rating",[1]; [15],0
same,"Plant response rating, Bromegrass, Downy",[1]; [16],10
same,"Plant response rating, Bromegrass, Downy",[1]; [17],15
same,"Plant response rating (scale of 0 to 100), Bromegrass, Downy","[1]; Preemergence, 31 g ai/ha",15
same,"Plant response rating, Bromegrass, Downy",[1]; [18],35
same,"Plant response rating, Bromegrass, Downy",[1]; [19],40
same,"Plant response rating, Bromegrass, Downy",[1]; [20],45
same,"Plant response rating, Bromegrass, Downy",[1]; [21],10
same,"Buckwheat, Wild plant response rating",[2]; [15],80
same,"Plant response rating, Buckwheat, Wild",[2]; [16],100
same,"Plant response rating, Buckwheat, Wild",[2]; [17],100
same,"Plant response rating (scale of 0 to 100), Buckwheat, Wild","[2]; Preemergence, 31 g ai/ha",15
same,"Plant response rating, Buckwheat, Wild",[2]; [18],20
same,"Plant response rating, Buckwheat, Wild",[2]; [19],100
same,"Plant response rating, Buckwheat, Wild",[2]; [20],100
same,"Plant response rating, Buckwheat, Wild",[2]; [21],100
same,Canarygrass plant response rating,[3]; [15],10
same,"Plant response rating, Canarygrass",[3]; [16],45
same,"Plant response rating, Canarygrass",[3]; [17],55
same,"Plant response rating (scale of 0 to 100), Canarygrass","[3]; Preemergence, 31 g ai/ha",25
same,"Plant response rating, Canarygrass",[3]; [18],35
same,"Plant response rating, Canarygrass",[3]; [19],70
same,"Plant response rating, Canarygrass",[3]; [20],80
same,"Plant response rating, Canarygrass",[3]; [21],30
same,Chamomile plant response rating,[4]; [15],70
same,"Plant response rating, Chamomile",[4]; [16],100
same,"Plant response rating, Chamomile",[4]; [17],100
same,"Plant response rating, Chamomile",[4]; [21],95
same,Chickweed plant response rating,[5]; [15],90
same,"Plant response rating, Chickweed",[5]; [16],100
same,"Plant response rating, Chickweed",[5]; [17],100
same,"Plant response rating (scale of 0 to 100), Chickweed","[5]; Preemergence, 31 g ai/ha",85
same,"Plant response rating, Chickweed",[5]; [18],95
same,"Plant response rating, Chickweed",[5]; [19],95
same,"Plant response rating, Chickweed",[5]; [20],95
same,"Plant response rating, Chickweed",[5]; [21],100
same,Deadnettle plant response rating,[6]; [15],25
same,"Plant response rating, Deadnettle",[6]; [16],55
same,"Plant response rating, Deadnettle",[6]; [17],65
same,"Plant response rating (scale of 0 to 100), Deadnettle","[6]; Preemergence, 31 g ai/ha",0
same,"Plant response rating, Deadnettle",[6]; [18],0
same,"Plant response rating, Deadnettle",[6]; [19],10
same,"Plant response rating, Deadnettle",[6]; [20],20
same,"Plant response rating, Deadnettle",[6]; [21],35
same,Field Violet plant response rating,[7]; [15],5
same,"Plant response rating, Field Violet",[7]; [16],25
same,"Plant response rating, Field Violet",[7]; [17],45
same,"Plant response rating (scale of 0 to 100), Field Violet","[7]; Preemergence, 31 g ai/ha",0
same,"Plant response rating, Field Violet",[7]; [18],15
same,"Plant response rating, Field Violet",[7]; [19],25
same,"Plant response rating, Field Violet",[7]; [20],75
same,"Plant response rating, Field Violet",[7]; [21],15
same,"Foxtail, Green plant response rating",[8]; [15],15
same,"Plant response rating, Foxtail, Green",[8]; [16],40
same,"Plant response rating, Foxtail, Green",[8]; [17],70
same,"Plant response rating (scale of 0 to 100), Foxtail, Green","[8]; Preemergence, 31 g ai/ha",25
same,"Plant response rating, Foxtail, Green",[8]; [18],60
same,"Plant response rating, Foxtail, Green",[8]; [19],75
same,"Plant response rating, Foxtail, Green",[8]; [20],85
same,"Plant response rating, Foxtail, Green",[8]; [21],35
same,Galium plant response rating,[9]; [15],70
same,"Plant response rating, Galium",[9]; [16],100
same,"Plant response rating, Galium",[9]; [17],100
same,"Plant response rating (scale of 0 to 100), Galium","[9]; Preemergence, 31 g ai/ha",10
same,"Plant response rating, Galium",[9]; [18],30
same,"Plant response rating, Galium",[9]; [19],75
same,"Plant response rating, Galium",[9]; [20],85
same,"Plant response rating, Galium",[9]; [21],75
same,Lambsquarters plant response rating,[10]; [15],85
same,"Plant response rating, Lambsquarters",[10]; [16],90
same,"Plant response rating, Lambsquarters",[10]; [17],95
same,"Plant response rating (scale of 0 to 100), Lambsquarters","[10]; Preemergence, 31 g ai/ha",75
same,"Plant response rating, Lambsquarters",[10]; [18],90
same,"Plant response rating, Lambsquarters",[10]; [19],100
same,"Plant response rating, Lambsquarters",[10]; [20],100
same,"Plant response rating, Lambsquarters",[10]; [21],85
same,Oilseed Rape plant response rating,[11]; [15],0
same,"Plant response rating, Oilseed Rape",[11]; [16],5
same,"Plant response rating, Oilseed Rape",[11]; [17],5
same,"Plant response rating (scale of 0 to 100), Oilseed Rape","[11]; Preemergence, 31 g ai/ha",0
same,"Plant response rating, Oilseed Rape",[11]; [18],0
same,"Plant response rating, Oilseed Rape",[11]; [19],0
same,"Plant response rating, Oilseed Rape",[11]; [20],0
same,"Plant response rating, Oilseed Rape",[11]; [21],0
same,"Ryegrass, Italian plant response rating",[12]; [15],55
same,"Plant response rating, Ryegrass, Italian",[12]; [16],80
same,"Plant response rating, Ryegrass, Italian",[12]; [17],90
same,"Plant response rating (scale of 0 to 100), Ryegrass, Italian","[12]; Preemergence, 31 g ai/ha",90
same,"Plant response rating, Ryegrass, Italian",[12]; [18],100
same,"Plant response rating, Ryegrass, Italian",[12]; [19],100
same,"Plant response rating, Ryegrass, Italian",[12]; [20],100
same,"Plant response rating, Ryegrass, Italian",[12]; [21],70
same,"Wheat, Winter plant response rating",[13]; [15],0
same,"Plant response rating, Wheat, Winter",[13]; [16],15
same,"Plant response rating, Wheat, Winter",[13]; [17],25
same,"Plant response rating (scale of 0 to 100), Wheat, Winter","[13]; Preemergence, 31 g ai/ha",0
same,"Plant response rating, Wheat, Winter",[13]; [18],0
same,"Plant response rating, Wheat, Winter",[13]; [19],15
same,"Plant response rating, Wheat, Winter",[13]; [20],25
same,"Plant response rating, Wheat, Winter",[13]; [21],10
same,Windgrass plant response rating,[14]; [15],25
same,"Plant response rating, Windgrass",[14]; [16],30
same,"Plant response rating, Windgrass",[14]; [17],40
same,"Plant response rating (scale of 0 to 100), Windgrass","[14]; Preemergence, 31 g ai/ha",35
same,"Plant response rating, Windgrass",[14]; [18],40
same,"Plant response rating, Windgrass",[14]; [19],50
same,"Plant response rating, Windgrass",[14]; [20],60
same,"Plant response rating, Windgrass",[14]; [21],30
